Source: patent US9695155B2, “Herbicidal substituted pyrimidinyloxy benzene compounds” (E. I. DU PONT DE NEMOURS AND COMPANY, priority 2013, dated 2017)

Assays:
barnyardgrass [1] = test: Test A preemergence; type: in vivo, Echinochloa crus-galli; conditions: Echinochloa crus-galli, pre-emergence, 240 h, 0 to 100 scale where 0 is no effect and 100 is complete control
In short: (§1)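 Compounds in non-phytotoxic solvent with surfactant applied as soil spray preemergence, or postemergence to plants 2-10 cm at one- to two-leaf stage, in loam/sand. After approximately 10 days in greenhouse, injury rated visually versus untreated controls, 0 (no effect) to 100 (complete control).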

barnyardgrass [2] = test: Test A postemergence; type: in vivo, Echinochloa crus-galli; conditions: Echinochloa crus-galli, post-emergence, 240 h, 0 to 100 scale where 0 is no effect and 100 is complete control
In short: as §1

corn = test: Test A postemergence; type: in vivo, Zea mays; conditions: Zea mays, post-emergence, 240 h, 0 to 100 scale where 0 is no effect and 100 is complete control
In short: as §1

rice = test: Test B flooded paddy test; type: in vivo, Oryza sativa; conditions: Oryza sativa; Flood, 250 g ai/ha; 0 to 100 scale where 0 is no effect and 100 is complete control; read-out: Plant response rating, Rice
In short: (§2)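 Scores from 0 (no effect) to 100 (complete control) are visual comparisons with controls, taken 13 to 15 days after compound was applied into floodwater 3 cm deep around 2-leaf plants.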

sedge, umbrella = test: Test B flooded paddy test; type: in vivo, Cyperus difformis; conditions: Cyperus difformis, Flood, 250 g ai/ha; 0 to 100 scale where 0 is no effect and 100 is complete control; read-out: Plant response rating, Sedge, Umbrella
In short: as §2

galium = test: Test C preemergence; type: in vivo, Galium aparine; conditions: Galium, pre-emergence
In short: (§3)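 Injury was assessed visually against controls 13 to 15 days after application, with 0 meaning no effect and 100 full control; missing entries are shown as a dash. Preemergence sprays hit seeded loam–sand soil, postemergence sprays hit 1- to 4-leaf plants.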

large (Lg) crabgrass [3] = test: Test C preemergence; type: in vivo, Digitaria sanguinalis; conditions: Digitaria sanguinalis, pre-emergence
In short: as §3

johnsongrass = test: Test C preemergence; type: in vivo, Sorghum halepense; conditions: Sorghum halepense, pre-emergence
In short: as §3

velvetleaf [4] = test: Test C preemergence; type: in vivo, Abutilon theophrasti; conditions: Abutilon theophrasti, pre-emergence
In short: as §3

large (Lg) crabgrass [5] = test: Test C postemergence; type: in vivo, Digitaria sanguinalis; conditions: Digitaria sanguinalis, post-emergence
In short: as §3

lambsquarters = test: Test C postemergence; type: in vivo, Chenopodium album; conditions: Chenopodium album, post-emergence
In short: as §3

soybean = test: Test C postemergence; type: in vivo, Glycine max; conditions: Glycine max, post-emergence
In short: as §3

oilseed rape = test: Test C postemergence; type: in vivo, Brassica napus; conditions: Brassica napus, post-emergence
In short: as §3

waterhemp = test: Test C postemergence; type: in vivo, Amaranthus rudis; conditions: Amaranthus tuberculatus, post-emergence
In short: as §3

velvetleaf [6] = test: Test C postemergence; type: in vivo, Abutilon theophrasti; conditions: Abutilon theophrasti, post-emergence
In short: as §3

Question: How did the pest or weed control at 125 g/ha (barnyardgrass [1]; 125 g ai/ha, read-out: Plant response rating, Barnyardgrass) turn out when `FC(F)(F)Sc1cnn(-c2ccccc2Oc2ncc(Cl)cn2)c1` [Compound 132, 5-chloro-2-[2-[4-(trifluoromethylthio)-1H-pyrazol-1-yl]phenoxy]pyrimidine] was run?
Answer: 50%

Question: What about the pest or weed control at 500 g/ha (barnyardgrass [1]; 500 g ai/ha, read-out: Barnyardgrass plant response rating) of the same compound?
Answer: 100%

Question: And the pest or weed control at 125 g/ha (barnyardgrass [2]; 125 g ai/ha, read-out: Barnyardgrass plant response rating)?
Answer: 50%

Question: And the pest or weed control at 500 g/ha (barnyardgrass [2]; 500 g ai/ha, read-out: Plant response rating, Barnyardgrass)?
Answer: 70%

Question: What about the plant injury at 125 g/ha (corn; 125 g ai/ha, read-out: Corn plant response rating) of the same compound?
Answer: 20%

Question: And the Corn plant response rating (crop injury, 0 = no effect, 100 = complete kill) at 500 g/ha (corn; 500 g ai/ha)?
Answer: 50%

Question: And the plant injury at 250 g/ha (rice)?
Answer: 0%

Question: And the pest or weed control at 250 g/ha (sedge, umbrella)?
Answer: 0%

Question: And the pest or weed control at 16 g/ha (galium; 16 g ai/ha, preemergence, scale 0 to 100 (0 no effect, 100 complete control), read-out: Galium plant response rating)?
Answer: 0%

Question: And the pest or weed control at 62 g/ha (galium; 62 g ai/ha, preemergence, scale 0 (no effect) to 100 (complete control), read-out: Galium plant response rating)?
Answer: 90%

Question: What about the pest or weed control at 125 g/ha (galium; 125 g ai/ha, preemergence, scale 0 (no effect) to 100 (complete control), read-out: Galium plant response rating) of the same compound?
Answer: 90%

Question: What about the pest or weed control at 31 g/ha (galium; Preemergence, 31 g ai/ha, scale 0 to 100, 0 no effect, 100 complete control, read-out: Plant response rating, Galium) of the same compound?
Answer: 0%

Question: And the pest or weed control at 16 g/ha (large (Lg) crabgrass [3]; 16 g ai/ha, preemergence, scale 0 to 100 (0 no effect, 100 complete control), read-out: Crabgrass, Large plant response rating)?
Answer: 65%

Question: And the pest or weed control at 62 g/ha (large (Lg) crabgrass [3]; 62 g ai/ha, preemergence, scale 0 (no effect) to 100 (complete control), read-out: Crabgrass, Large plant response rating)?
Answer: 98%

Question: And the pest or weed control at 125 g/ha (large (Lg) crabgrass [3]; 125 g ai/ha, preemergence, scale 0 (no effect) to 100 (complete control), read-out: Crabgrass, Large plant response rating)?
Answer: 100%

Question: What about the pest or weed control at 31 g/ha (large (Lg) crabgrass [3]; Preemergence, 31 g ai/ha, scale 0 to 100, 0 no effect, 100 complete control, read-out: Plant response rating, Crabgrass, Large) of the same compound?
Answer: 85%

Question: And the pest or weed control at 16 g/ha (johnsongrass; 16 g ai/ha, preemergence, scale 0 to 100 (0 no effect, 100 complete control), read-out: Johnsongrass plant response rating)?
Answer: 0%

Question: What about the pest or weed control at 62 g/ha (johnsongrass; 62 g ai/ha, preemergence, scale 0 (no effect) to 100 (complete control), read-out: Johnsongrass plant response rating) of the same compound?
Answer: 0%

Question: What about the pest or weed control at 125 g/ha (johnsongrass; 125 g ai/ha, preemergence, scale 0 (no effect) to 100 (complete control), read-out: Johnsongrass plant response rating) of the same compound?
Answer: 35%

Question: And the pest or weed control at 31 g/ha (johnsongrass; Preemergence, 31 g ai/ha, scale 0 to 100, 0 no effect, 100 complete control, read-out: Plant response rating, Johnsongrass)?
Answer: 0%

Question: And the pest or weed control at 16 g/ha (velvetleaf [4]; 16 g ai/ha, preemergence, scale 0 to 100 (0 no effect, 100 complete control), read-out: Velvetleaf plant response rating)?
Answer: 75%

Question: And the pest or weed control at 62 g/ha (velvetleaf [4]; 62 g ai/ha, preemergence, scale 0 (no effect) to 100 (complete control), read-out: Velvetleaf plant response rating)?
Answer: 100%

Question: And the pest or weed control at 125 g/ha (velvetleaf [4]; 125 g ai/ha, preemergence, scale 0 (no effect) to 100 (complete control), read-out: Velvetleaf plant response rating)?
Answer: 100%

Question: And the pest or weed control at 31 g/ha (velvetleaf [4]; Preemergence, 31 g ai/ha, scale 0 to 100, 0 no effect, 100 complete control, read-out: Plant response rating, Velvetleaf)?
Answer: 85%

Question: What about the pest or weed control at 16 g/ha (large (Lg) crabgrass [5]; 16 g ai/ha, postemergence, 0 is no effect, 100 is complete control, read-out: Plant response rating (0 to 100), Crabgrass, Large) of the same compound?
Answer: 5%

Question: What about the pest or weed control at 125 g/ha (large (Lg) crabgrass [5]; 125 g ai/ha, postemergence, visual rating, scale 0 to 100 (0 no effect, 100 complete control), read-out: Plant response rating, Crabgrass, Large) of the same compound?
Answer: 10%

Question: And the pest or weed control at 62 g/ha (large (Lg) crabgrass [5]; Postemergence, 62 g ai/ha, scale 0 to 100 (0 no effect, 100 complete control), read-out: Plant response rating, Crabgrass, Large)?
Answer: 5%

Question: What about the pest or weed control at 16 g/ha (lambsquarters; 16 g ai/ha, postemergence, 0 is no effect, 100 is complete control, read-out: Plant response rating (0 to 100), Lambsquarters) of the same compound?
Answer: 10%

Question: And the pest or weed control at 125 g/ha (lambsquarters; 125 g ai/ha, postemergence, visual rating, scale 0 to 100 (0 no effect, 100 complete control), read-out: Plant response rating, Lambsquarters)?
Answer: 50%

Question: And the pest or weed control at 62 g/ha (lambsquarters; Postemergence, 62 g ai/ha, scale 0 to 100 (0 no effect, 100 complete control), read-out: Plant response rating, Lambsquarters)?
Answer: 60%

Question: What about the Soybean plant response rating (crop injury, 0-100 scale) at 16 g/ha (soybean; 16 g ai/ha, postemergence, 0 is no effect, 100 is complete control) of the same compound?
Answer: 20%

Question: And the Soybean plant response rating (crop injury, 0-100 scale) at 125 g/ha (soybean; 125 g ai/ha, postemergence, visual rating, scale 0 to 100 (0 no effect, 100 complete control), read-out: Plant response rating, Soybean)?
Answer: 50%

Question: What about the Soybean plant response rating (crop injury, 0-100 scale) at 62 g/ha (soybean; Postemergence, 62 g ai/ha, scale 0 to 100 (0 no effect, 100 complete control)) of the same compound?
Answer: 35%

Question: And the plant injury at 16 g/ha (oilseed rape; 16 g ai/ha, postemergence, 0 is no effect, 100 is complete control, read-out: Plant response rating (0 to 100), Oilseed Rape)?
Answer: 40%

Question: And the plant injury at 125 g/ha (oilseed rape; 125 g ai/ha, postemergence, visual rating, scale 0 to 100 (0 no effect, 100 complete control), read-out: Plant response rating, Oilseed Rape)?
Answer: 95%

Question: What about the plant injury at 62 g/ha (oilseed rape; Postemergence, 62 g ai/ha, scale 0 to 100 (0 no effect, 100 complete control), read-out: Plant response rating, Oilseed Rape) of the same compound?
Answer: 70%

Question: And the pest or weed control at 16 g/ha (waterhemp; 16 g ai/ha, postemergence, 0 is no effect, 100 is complete control, read-out: Plant response rating (0 to 100), Waterhemp)?
Answer: 45%

Question: What about the pest or weed control at 125 g/ha (waterhemp; 125 g ai/ha, postemergence, visual rating, scale 0 to 100 (0 no effect, 100 complete control), read-out: Plant response rating, Waterhemp) of the same compound?
Answer: 75%

Question: And the pest or weed control at 62 g/ha (waterhemp; Postemergence, 62 g ai/ha, scale 0 to 100 (0 no effect, 100 complete control), read-out: Plant response rating, Waterhemp)?
Answer: 65%

Question: And the pest or weed control at 16 g/ha (velvetleaf [6]; 16 g ai/ha, postemergence, 0 is no effect, 100 is complete control, read-out: Plant response rating (0 to 100), Velvetleaf)?
Answer: 5%

Question: What about the pest or weed control at 125 g/ha (velvetleaf [6]; 125 g ai/ha, postemergence, visual rating, scale 0 to 100 (0 no effect, 100 complete control), read-out: Plant response rating, Velvetleaf) of the same compound?
Answer: 45%

Question: And the pest or weed control at 62 g/ha (velvetleaf [6]; Postemergence, 62 g ai/ha, scale 0 to 100 (0 no effect, 100 complete control), read-out: Plant response rating, Velvetleaf)?
Answer: 40%
